The record followed here is paper PMC11218975, “The evolution of antimicrobial peptide resistance in Pseudomonas aeruginosa is severely constrained by random peptide mixtures” (PLOS Biology, 2024).

Assay [1] concerns P. aeruginosa 14 strain (PA14), ancestor strain. The assay is classed as cell-based, Pseudomonas aeruginosa. The settings on record: ancestral strain PA14; MH broth, 5 × 10^5 CFU/ml, 96-well serial dilution, 24 h, inhibition of growth by at least 90% (OD595); 3 replicate lines per peptide. As to the method:
MIC values were determined following a standard serial dilution protocol, as described elsewhere. Briefly, PA14 cells were grown overnight in MH broth, at 37°C and 200 rpm. Subsequently, cells were diluted 1:100 in MH broth and grown until reaching an optical density at 595 nm (OD595) of 0.1. Then, 100 μl of 5 × 10^5 CFU/ml were inoculated into each well in 96-well plates that contained a serial dilution of AMPs or RPMs. Each plate contained 3 replicate lines per peptide. The MICs were defined as the lowest concentration at which there was inhibition of bacterial growth by at least 90%, after 24 h, by measuring the OD595.
The MIC was determined on 3 occasions: (1) prior to the experiment, to determine the concentration of our focal peptides to be used at the start of the experimental evolution (i.e., MIC of the ancestor strain); (2) at the end of the experimental evolution, detect an increase, or decrease, in the resistance of the experimentally evolved strains to our peptides of interest; (3) to evaluate whether the experimental evolution of a certain treatment was accompanied by an increase, or decrease, in resistance or sensitivity to another antimicrobial (i.e., cross-resistance or collateral-sensitivity).

The subject of assay [2] is PA14 strains evolved in the presence of an AMP/RPM. The assay is described as follows: Fitness cost of evolved strains (growth curves in the absence of AMPs). In kind it is cell-based, Pseudomonas aeruginosa. To be noted: growth in MH broth without AMPs, OD595 every 15 min for 24 h, normalised to ancestor; n = 6. As for the experimental part: Bacterial cells were grown overnight in MH broth and then diluted to an OD595 of 0.1. For each strain, 200 μl of culture were transferred into 96-well plates, with 3 technical replicates. Optical density (OD595) was measured every 15 min for 24 h using an Epoch 2 microplate reader (BioTek). Lag time and Vmax were assessed using the plate reader software (Gen5). The values measured in the experimentally evolved strains were divided by the values of their respective ancestors and expressed as lag time fold-change and Vmax fold-change (see “Statistical analysis” section).
Similarly, we normalised both fitness readouts duration of the lag phase (lag time) and maximum slope of the bacterial growth curve (Vmax) to the readouts of the ancestor of the given evolved strain by dividing the values of the evolved strains to that of their respective ancestors. The resulting variable is a fold-change in Vmax and lag time during experimental evolution: Vmax fold-change and lag time fold-change.

Where no end group is shown, it is not given here.

Turning to KIAKRIWKILRRR [PA-13], in assay [1], the MIC – broadly, the lowest concentration that inhibits growth of the organism – is 25 µg/mL. Take “p-KKKFK [SLM3, specific palmitic acid-modified 5-mer peptide, composed of L-Lysine and/or L-Phenylalanine, part of a 32-peptide library]”: the “Lag time fold-change of evolved strains compared to control strains” value in assay [2] is on record as “significantly increased lag times”.
